Source: a melting point compilation (Tetko et al.; mined from patent text by program, amines drawn as free bases though some values may be those of a salt)

Row | melting point | Compound
1 | 198 °C | CCN(CC)c1ccc(CN2C(=O)C(C)(c3ccccc3Cl)c3cc(Cl)ccc32)c(OC)c1 (stereo not drawn)
2 | 138 to 139 °C | CCCC(=O)n1nc2c(c1NC)c(=O)n(CCC)c(=O)n2Cc1ccccc1
3 | 38 to 39 °C | O=C(CCl)COc1cccc(C(F)(F)F)c1
4 | 105 to 107 °C | CCOC(=O)COc1ccc(C(C)=O)cc1NC(=O)c1ccc(OCCCCc2ccccc2)cc1
5 | 180 °C | CC(C)(C)c1cc(CCc2ccccc2NC(=O)NCCc2ccccn2)cc(C(C)(C)C)c1O
6 | 221 to 222 °C | CCc1[nH]n(C2CCCC2)c2nc(-c3ccccc3)nc(=O)c1-2
7 | 196 to 197 °C | Cc1c(NC(=O)CC(C)(C)C)cc2c(c1C)OC(C)(C)C2Nc1ccccc1OC(F)(F)F (stereo not drawn)
8 | 51 °C | CCCCCCCC(=O)Oc1ccc(C(=O)O)cc1
9 | 121 to 124 °C | CCOC(=O)C1=C(C(=O)OCC)C(c2cccc([N+](=O)[O-])c2)C(C(=O)OCC)=C(C(=O)OCC)N1
10 | 104 to 106 °C | COc1ccc(C(=O)CCCCCN2CCC(CNC(=O)c3cc(Cl)c(N)cc3OC)CC2)cc1Cl
11 | 104 to 110 °C | CCCCC1=NC2(CCCC2)C(=O)N1Cc1ccc(-c2ccccc2S(=O)(=O)NC(=O)c2onc(C)c2C)c(CN2CCC(C)(C)C2=O)c1
12 | 178 to 180 °C | CCCc1nc2c(N)nc3cc(OCc4c(C)noc4C)ccc3c2s1
13 | 221 to 223 °C | CSC1=NC2C=C(C(=O)NCC3CC3)C(NC(=O)c3cc(C(F)(F)F)nn3-c3ncccc3Cl)=C(Cl)C2S1 (stereo not drawn)
14 | 108 to 109 °C | CC(=O)C(=NNc1cccc(C(F)(F)F)c1)C(C)=O
15 | 229 to 230 °C | COc1ccc(Cl)cc1C(=N)Nc1ccc(F)c(NC(=O)/C=C/c2ccccc2Cl)c1
16 | 124 to 126 °C | CCCCc1nn(-c2cc([N+](=O)[O-])ccc2Cl)c(=O)n1Cc1ccc(-c2ccccc2S(=O)(=O)NC(C)(C)C)cc1F
17 | 299 to 302 °C | O=c1[nH]c2cc(Cl)cc(Cl)c2c(=O)n1Cc1cccc(I)c1
18 | 157 to 159 °C | CC(=O)N1c2cc(Cl)ccc2Sc2ccc(C(C)N(O)C(N)=O)cc21 (stereo not drawn)
19 | 105 to 108 °C | CCCCCCCCCCCCCCOc1ccc2c(C)c(C(=O)O)oc2c1

More lines, now with the values behind:

Row | Compound | melting point
20 | C[C@@H]1N=C(c2ccccc2Cl)c2c(ccc(N)c2Br)N(C)C1=O | 243 °C
21 | COc1ccccc1Sc1c(O)nc[nH]c1=O | 291 °C
22 | COc1ccc(OC)c(C2=Nc3ccc(N4CCCC4)cc3C(=O)C2)c1 | 272 to 274 °C
23 | CCOC(=O)c1cn2c(n1)CN=C(c1ccccn1)c1cc(Br)ccc1-2 | 227 to 230 °C
24 | COc1ccc(Nc2nc(Cl)nc(NC3CCCCCC3)n2)cc1Cl | 146 °C
25 | Cc1ccc(Cl)cc1N1CCCN(C2CCC2)C1=S | 152 to 154 °C
26 | N#Cc1cccc(CN2C(=O)c3ccccc3C2=O)n1 | 205 °C
27 | Cc1cccc(C#Cc2cccc(C#N)c2)n1 | 120 to 123 °C
28 | NC(=NO)c1ccc(-c2ccc(Cl)cc2)o1 | 167 to 169 °C
29 | CSc1nn(-c2c(Cl)cc(C(F)(F)F)cc2Cl)nc1C | 38 to 40 °C
30 | C=CCc1cc2c(cc1OCC=Cc1ccccc1)CCC(=O)N2CC=Cc1ccccc1 | 88 to 89 °C
31 | O=C(O)CC(c1ccccc1)C(F)(F)F (stereo not drawn) | 72 °C
32 | O=C(Cc1ccc2ccccc2c1)Nc1cc(-c2ccncc2)[nH]n1 | 227 to 235 °C
33 | COc1ccc(C2=NNC(=O)Cc3cc4c(cc32)OCO4)cc1 | 194 to 196 °C
34 | CC(C)c1nc(COCc2ccccc2)n(C(C)F)c1Sc1cc(Cl)cc(Cl)c1 (stereo not drawn) | 131 to 132 °C
35 | CC(C(=O)O)c1ccc2c(c1)Sc1ncccc1CC2 (stereo not drawn) | 161 to 162 °C
36 | Clc1ncnc2oc(-c3ccccc3)cc12 | 136 to 138 °C
37 | Cc1ccc(C=C(C=O)C(C=O)=Cc2ccc(C)cc2)cc1 | 177 to 178 °C
38 | COc1ccc(NS(=O)(=O)c2ccc(N3CCNC3=O)cc2)cc1 | 210 to 211 °C
